The results in this text go back to patent publication US20230391778A1, “INDOLIN-2-ONE OR PYRROLO -PYRIDIN -2 -ONE DERIVATIVES” (Hoffmann-La Roche Inc., priority 2014, published 2023).

Usually IC50 stands for the concentration that gives 50% inhibition. A high value points to weaker potency.

The target in this experiment is T1, mouse ENT-1 transporter (Mus musculus, UniProt Q9JIM1).
T1 construct: expressed in transfected cells
T1 sequence (Q9JIM1 1-460): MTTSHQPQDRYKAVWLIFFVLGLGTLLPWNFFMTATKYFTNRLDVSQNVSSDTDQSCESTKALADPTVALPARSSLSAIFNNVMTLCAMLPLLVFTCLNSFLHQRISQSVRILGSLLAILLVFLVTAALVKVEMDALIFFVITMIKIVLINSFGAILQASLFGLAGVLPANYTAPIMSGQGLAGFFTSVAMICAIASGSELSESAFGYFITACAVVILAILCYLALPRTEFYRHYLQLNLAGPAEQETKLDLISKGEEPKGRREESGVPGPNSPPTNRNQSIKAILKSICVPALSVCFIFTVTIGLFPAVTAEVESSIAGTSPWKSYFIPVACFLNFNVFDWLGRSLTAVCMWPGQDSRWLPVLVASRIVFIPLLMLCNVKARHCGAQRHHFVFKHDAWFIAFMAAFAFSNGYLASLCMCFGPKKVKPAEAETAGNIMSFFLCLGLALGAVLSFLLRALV
Description: Measure of adenosine transport activity (ENT1 adenosine uptake inhibition). It is filed as cell-based. Particulars: stable cells expressing mouse ENT-1, [2,8-3H]-adenosine 6 nM, 20 min. How it is done:
To measure adenosine transport activity of ENT-1 mammalian cells, stable cells expressing the mouse ENT-1 transporter were plated on day 1 in 96-well culture plates at the density of 60,000 cells/well, in complete DMEM/F12 medium supplemented with glutamax, 10% FBS and 10 μg/ml puromycin. On day 2, the medium was aspirated and the cells were washed twice with uptake buffer (10 mM Hepes-Tris, pH 7.4 containing 150 mM NaCl, 1 mM CaCl2), 2.5 mM KCl, 2.5 mM MgSO4, 10 mM D-glucose) (UB). For inhibition experiments, cells were then incubated at RT with various concentrations of compounds with 1% DMSO final. Non-specific uptake was defined in the presence of 10 μM S-(4-Nitrobenzyl)-6-thioinosine (NBTI, Sigma Cat #N2255).
The plates were then incubated for 20 min with gentle shaking and the reaction was stopped by aspiration of the mixture and washing (three times) with ice-cold UB. The cells were lysed by the addition of scintillation liquid, shaken 3 hours and the radioactivity in the cells was estimated using a microplates scintillation counter (TopCount NXT, Packard).

Counter-ions that a name gives are not always drawn.

`Cc1ncc(-c2ccc3c(c2)N(c2ncc[nH]2)C(=O)C3(C)C)cn1` [Example 92, 1-(1H-imidazol-2-yl)-3,3-dimethyl-6-(2-methylpyrimidin-5-yl)indolin-2-one] displayed an IC50 of 1290 nM. In the case of `Cc1ncc(-c2ccc3c(c2)N(c2nnn(C)n2)C(=O)C3(C)C)cn1` [Example 105, 3,3-dimethyl-1-(2-methyl-2H-tetrazol-5-yl)-6-(2-methylpyrimidin-5-yl)indolin-2-one], the IC50 was determined as 7000 nM. As for `Cc1ncc(-c2ccc3c(c2)N(c2ccc(C)[n+]([O-])n2)C(=O)C3(C)C)cn1` (single isomer, unassigned) [Example 106, 3-(3,3-dimethyl-6-(2-methylpyrimidin-5-yl)-2-oxoindolin-1-yl)-6-methylpyridazine 1-oxide], the figure is 481 nM; as for `Cc1ncc(-c2ccc3c(c2)N(c2cnc(CO)nc2)C(=O)C3(C)C)cn1` [Example 102, 1-(2-(hydroxymethyl)pyrimidin-5-yl)-3,3-dimethyl-6-(2-methylpyrimidin-5-yl)indolin-2-one], 10200 nM. On to `Cc1ncc(-c2ccc3c(c2)N(c2cc(Cl)nc(C)n2)C(=O)C3(C)C)cn1` [Example 121, 1-(6-chloro-2-methylpyrimidin-4-yl)-3,3-dimethyl-6-(2-methylpyrimidin-5-yl)indolin-2-one], for which the half-inhibitory concentration (IC50) is 669 nM.

Compound `Cc1ncc(-c2ccc3c(c2)N(c2cncnc2)C(=O)C3(C)C)cn1` [Example 8, 3,3-Dimethyl-6-(2-methylpyrimidin-5-yl)-1-(pyrimidin-5-yl)indolin-2-one] registered an IC50 of 3890 nM. In the case of `Cc1cc(N2C(=O)C(C)(C)c3ccc(-c4cnccc4F)cc32)ccn1` [Example 24, 6-(4-Fluoropyridin-3-yl)-3,3-dimethyl-1-(2-methylpyridin-4-yl)indolin-2-one], the IC50 was determined as 8790 nM.

`Cc1ncc(-c2ccc3c(c2)N(c2cn(C)c(C)n2)C(=O)C3(C)C)cn1` [Example 65, 1-(1,2-Dimethyl-1H-imidazol-4-yl)-3,3-dimethyl-6-(2-methylpyrimidin-5-yl)indolin-2-one] showed an IC50 of 6740 nM. With `Cc1cnc(N2C(=O)C(C)(C)c3ccc(-c4cnc(C)c(F)c4)cc32)cn1` [Example 151, 6-(5-fluoro-6-methyl-3-pyridyl)-3,3-dimethyl-1-(5-methylpyrazin-2-yl)indolin-2-one], the IC50 was found to be 37 nM.

The compound `Cc1cc(N2C(=O)C(C)(C)c3ccc(-c4cnc(C)nc4)cc32)ccn1` [Example 6, 3,3-Dimethyl-1-(2-methylpyridin-4-yl)-6-(2-methylpyrimidin-5-yl)indolin-2-one] came in with an IC50 of 2130 nM. Compound `Cc1ncc(-c2ccc3c(c2)N(c2cnn(C)c2)C(=O)C3(C)C)cn1` [Example 80, 3,3-dimethyl-1-(1-methyl-1H-pyrazol-4-yl)-6-(2-methylpyrimidin-5-yl)indolin-2-one] returned an IC50 of 1500 nM.

For `Cc1ncc(-c2ccc3c(c2)N(c2c[nH]cn2)C(=O)C3(C)C)cn1` [Example 85, 1-(1H-imidazol-4-yl)-3,3-dimethyl-6-(2-methylpyrimidin-5-yl)indolin-2-one], the half-inhibitory concentration (IC50) worked out at 5240 nM.

Regarding `Cc1cc(N2C(=O)C(C)(C)c3ccc(-c4cnc(C)nc4)cc32)cc(C)n1` [Example 66, 1-(2,6-Dimethylpyridin-4-yl)-3,3-dimethyl-6-(2-methylpyrimidin-5-yl)indolin-2-one], the IC50 is 1140 nM. In the case of `Cc1ncc(-c2ccc3c(c2)N(c2ccc(C)[n+]([O-])n2)C(=O)C3(C)C)c[n+]1[O-]` [Example 107, 3-(3,3-dimethyl-6-(2-methyl-1-oxidopyrimidin-5-yl)-2-oxoindolin-1-yl)-6-methylpyridazine 1-oxide], the IC50 came out at 2190 nM. `Cc1cnc(N2C(=O)C(C)(C)c3ccc(-c4cncc(F)c4)cc32)cn1` [Example 150, 6-(5-fluoro-3-pyridyl)-3,3-dimethyl-1-(5-methylpyrazin-2-yl)indolin-2-one]: the midpoint of inhibition, the IC50, lay at 1480 nM. The compound `Cc1ncc(-c2ccc3c(c2)N(c2cnc(C)c(C)c2)C(=O)C3(C)C)cn1` [Example 75, 1-(5,6-dimethylpyridin-3-yl)-3,3-dimethyl-6-(2-methylpyrimidin-5-yl)indolin-2-one] gave an IC50 of 827 nM.

Turning to `Cc1cc(-c2ccc3c(c2)N(c2ccnc(C)c2)C(=O)C3(C)C)ccn1` [Example 20, 3,3-Dimethyl-1,6-bis(2-methylpyridin-4-yl)indolin-2-one], half-maximal inhibition (IC50) was put at 5670 nM. As for `Cc1ncc(-c2ccc3c(c2)N(c2cc(C)c(C)cn2)C(=O)C3(C)C)cn1` [Example 69, 1-(4,5-Dimethylpyridin-2-yl)-3,3-dimethyl-6-(2-methylpyrimidin-5-yl)indolin-2-one], the figure is 1280 nM.

Regarding `Cc1ccc(-c2ccc3c(c2)N(c2ccn(C)n2)C(=O)C3(C)C)cn1` [Example 13, 3,3-Dimethyl-1-(1-methyl-1H-pyrazol-3-yl)-6-(6-methylpyridin-3-yl)indolin-2-one], the IC50 was determined as 1150 nM. As for `Cc1ccc(N2C(=O)C(C)(C)c3ccc(-n4cnc(C(C)C)c4)cc32)cn1` [Example 33, 6-(4-Isopropylimidazol-1-yl)-3,3-dimethyl-1-(6-methyl-3-pyridyl)indolin-2-one], the figure is 1220 nM; as for `Cc1cncc(N2C(=O)C(C)(C)c3ccc(-c4cnc(C)nc4)cc32)c1` [Example 59, 3,3-Dimethyl-1-(5-methylpyridin-3-yl)-6-(2-methylpyrimidin-5-yl)indolin-2-one], 657 nM.

The compound `Cc1ncc(-c2ccc3c(c2)N(c2cnc(C#N)cn2)C(=O)C3(C)C)cn1` [Example 96, 5-(3,3-dimethyl-6-(2-methylpyrimidin-5-yl)-2-oxoindolin-1-yl)pyrazine-2-carbonitrile] came in with an IC50 of 154 nM. Then `Cc1ncc(-c2ccc3c(c2)N(c2nc(C)ns2)C(=O)C3(C)C)cn1` [Example 123, 3,3-dimethyl-1-(3-methyl-1,2,4-thiadiazol-5-yl)-6-(2-methylpyrimidin-5-yl)indolin-2-one], with 694 nM. Then `CCn1ccc(N2C(=O)C(C)(C)c3ccc(-c4cnc(C)nc4)cc32)n1` [Example 94, 1-(1-ethyl-1H-pyrazol-3-yl)-3,3-dimethyl-6-(2-methylpyrimidin-5-yl)indolin-2-one], with 1160 nM; and `Cc1ccnc(N2C(=O)C(C)(C)c3ccc(-c4cnc(C)nc4)cc32)n1` [Example 64, 3,3-Dimethyl-1-(4-methylpyrimidin-2-yl)-6-(2-methylpyrimidin-5-yl)indolin-2-one], with 5090 nM; and `Cc1ncc(-c2ccc3c(c2)N(c2cncnc2C)C(=O)C3(C)C)cn1` [Example 84, 3,3-dimethyl-6-(2-methylpyrimidin-5-yl)-1-(4-methylpyrimidin-5-yl)indolin-2-one], with 15600 nM. Then `Cc1cc(N2C(=O)C(C)(C)c3ccc(-c4cnc(C)nc4)cc32)nc(C)n1` [Example 68, 1-(2,6-Dimethylpyrimidin-4-yl)-3,3-dimethyl-6-(2-methylpyrimidin-5-yl)indolin-2-one], with 502 nM; and `COCc1ccc(N2C(=O)C(C)(C)c3ccc(-c4cnc(C)nc4)cc32)cn1` [Example 129, 1-(6-(methoxymethyl)pyridin-3-yl)-3,3-dimethyl-6-(2-methylpyrimidin-5-yl)indolin-2-one], with 887 nM. Take `Cc1ncc(-c2ccc3c(c2)N(c2ncc(C)[nH]2)C(=O)C3(C)C)cn1` [Example 88, 3,3-dimethyl-1-(4-methyl-1H-imidazol-2-yl)-6-(2-methylpyrimidin-5-yl)indolin-2-one]: the IC50 came out at 7660 nM. Consider `Cc1ncc(-c2ccc3c(c2)N(c2ccc(CO)nc2)C(=O)C3(C)C)cn1` [Example 31, 1-(6-(Hydroxymethyl)pyridin-3-yl)-3,3-dimethyl-6-(2-methylpyrimidin-5-yl)indolin-2-one], for which half-maximal inhibition (IC50) required 168 nM. Compound `Cc1cc(N2C(=O)C(C)(C)c3ccc(-c4cnc(C)nc4)cc32)[nH]n1` [Example 86, 3,3-dimethyl-1-(3-methyl-1H-pyrazol-5-yl)-6-(2-methylpyrimidin-5-yl)indolin-2-one hydrochloride] had an IC50 of 423 nM. Then `Cc1ncc(-c2ccc3c(c2)N(c2ccncc2F)C(=O)C3(C)C)cn1` [Example 46, 1-(3-Fluoropyridin-4-yl)-3,3-dimethyl-6-(2-methylpyrimidin-5-yl)indolin-2-one], with 3530 nM; and `Cc1ncc(-c2ccc3c(c2)N(c2cnc(Cl)cn2)C(=O)C3(C)C)cn1` [Example 117, 1-(5-chloropyrazin-2-yl)-3,3-dimethyl-6-(2-methylpyrimidin-5-yl)indol-2-one], with 35 nM; and `Cc1ncc(-c2ccc3c(c2)N(c2cc(C)n(C)n2)C(=O)C3(C)C)cn1` [Example 5, 1-(1,5-Dimethyl-1H-pyrazol-3-yl)-3,3-dimethyl-6-(2-methylpyrimidin-5-yl)indolin-2-one], with 1050 nM.
